From patent US20040253277A1, “Anaesthetic formulations of propofol” (priority 2001, published 2004)
Converted amounts (≈) assume the structure as drawn.

Columns and labels:
[1] = physchem; details: water, thermodynamic from solid
[2] = in vivo; cited from earlier work

CC(C)c1cccc(C(C)C)c1O [Propofol, 2,6-bis(1-methylethyl)phenol; 2,6-diisopropylphenol]
solubility thermodynamic [1]: ~1000 µM (≈ 178 µg/mL)
dose required for long term infusion for anaesthesia [2]: 4-12 mg/kg per hour
time of maximum effect after dosing [2]: within about one minute
